Measured values reported in patent publication US5985603A, “P2x receptor DNA and protein sequence” (Glaxo Group Limited, priority 1994, dated 1999).

Assays:
[1] = molecular target: T1, PC12 P2X receptor (Rattus norvegicus, UniProt P49653); assay: functional properties of cloned P2X receptors (electrical recordings): PC12; assay type: cell-based
T1 construct: host or cells: HEK293 cells (oocytes are also named for the functional characterisation of clone 3)
T1 sequence (P49653 1-472): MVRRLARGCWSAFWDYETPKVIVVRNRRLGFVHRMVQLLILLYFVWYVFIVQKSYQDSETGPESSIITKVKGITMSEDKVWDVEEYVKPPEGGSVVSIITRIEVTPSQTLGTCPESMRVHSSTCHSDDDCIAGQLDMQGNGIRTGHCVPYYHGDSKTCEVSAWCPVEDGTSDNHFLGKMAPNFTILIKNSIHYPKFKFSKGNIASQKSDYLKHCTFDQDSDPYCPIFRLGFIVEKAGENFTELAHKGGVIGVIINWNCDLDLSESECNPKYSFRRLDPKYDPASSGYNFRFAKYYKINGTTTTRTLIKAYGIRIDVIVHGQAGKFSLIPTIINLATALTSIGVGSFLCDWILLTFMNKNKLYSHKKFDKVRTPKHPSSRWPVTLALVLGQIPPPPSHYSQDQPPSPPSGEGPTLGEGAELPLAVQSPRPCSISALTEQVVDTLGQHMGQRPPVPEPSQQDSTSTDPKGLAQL

[2] = molecular target: T2, hP2X (Homo sapiens, UniProt P51575); assay: inward currents evoked by purinoceptor agonists in Xenopus oocytes expressing hP2X; assay type: cell-based
T2 construct: expressed in transfected cells; host or cells: Xenopus oocytes injected with in vitro transcribed RNA
T2 sequence (P51575 1-399): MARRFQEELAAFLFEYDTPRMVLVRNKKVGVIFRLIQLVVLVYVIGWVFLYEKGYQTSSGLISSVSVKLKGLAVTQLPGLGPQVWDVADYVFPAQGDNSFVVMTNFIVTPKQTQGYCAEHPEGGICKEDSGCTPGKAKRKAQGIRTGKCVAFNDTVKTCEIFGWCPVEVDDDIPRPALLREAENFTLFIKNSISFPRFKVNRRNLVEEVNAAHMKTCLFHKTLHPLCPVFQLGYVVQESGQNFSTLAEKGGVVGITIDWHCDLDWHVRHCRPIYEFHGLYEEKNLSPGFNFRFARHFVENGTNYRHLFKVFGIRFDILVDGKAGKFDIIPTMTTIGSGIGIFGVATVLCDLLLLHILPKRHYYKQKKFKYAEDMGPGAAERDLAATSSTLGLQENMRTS
Method: Human urinary bladder P2X cDNA, subcloned into the pBKCMV expression vector, was linearized with Notl, and transcribed in vitro with T3 polymerase in the presence of cap analogue m7G(5')ppp(5')G. Defolliculated Xenopus oocytes (Bertrand et al, Electrophysiology of neuronal nicotinic acetylcholine receptors expressed in Xenopus oocytes following nuclear injection of genes or cDNAs Meth Neurosci 4: 174-193 (1991)) were injected with 50 ng of human P2X in vitro transcribed RNA, and incubated at 18° C. for 2-6 days in the ND96 solution (mM): NaCl96, KCl2, MgCl2 1, CaCl2 2, sodium pyruvate 5, HEPES 5, ph 7.6-7.5, penicillin (10 U/ml), and streptomycin (10 μg/ml).
Oocytes were placed in a 1 ml chamber and superfused at 2-3 ml/min with ND96 solution with 0.1 mM BaCl2 replacing the 2 mM CaCl2 to prevent activation of endogenous calcium-activated chloride currents (Barish, A transient calcium-dependent chloride current in the immature Xenopus oocytes J Physiol 342: 309-325 (1983)). Currents were measured using a two-electrode voltage-clamp amplifier (Geneclamp Axon Instruments)at a holding potential of -60 mV. Microelectrodes were filled with 3 M KCl (0.5-2 M.OMEGA.). Data were collected using PClamp software (Axon Instruments). […] Antagonists were applied both in the superfusate and together with ATP in the U-tube solution.
Concentration response curves for purinoceptor agonists were fitted with a Hill slope of 1. […] Data are presented throughout as mean ± SEM for a given number of oocytes.

[3] = ATP higher concentrations (1 μM)

Nc1ncnc2c1ncn2[C@@H]1O[C@H](COP(=O)([O-])OP(=O)([O-])OP(=O)([O-])[O-])[C@@H](O)[C@H]1O.[Mg+2].[Mg+2] [ATP, adenosine 5'-triphosphate magnesium salt]
EC50 [1]: 8 µM | response to repeated application ([2]; 100 μM ATP for 5 s every 10 min): reproducible inward currents | reversal of current on washout ([2]; ATP): returned to control values on washout | time over which responses developed ([2]; ATP 30-300 nM): 3 to 5 s | response after 5 s of continued application, of the peak amplitude [2, 3]: 40-60 | time to peak of response [2, 3]: 1 to 1.5 s | variation in peak amplitude on repeated application ([2]; ATP up to 1 mM for 5 s every 10 mins): < 10% | comparison of concentration-effect curves ([2]; ATP, 2MeSATP and 2-chloro-ATP): superimposable | agonist profile (rank order) ([2]; oocytes expressing hP2X): 2MeSATP≥ATP>α,β,-meATP | activation at 10 µM ([2]; read-out: response to 10 μM ATP, % of peak response to ATP): ~90%
